Experimental data from the NIST ThermoML archive (doi:10.1021/je0302001).

Assay: mn = molality of the nth substance listed, in mol/kg
Settings: for surface tension liquid-gas: Ring tensiometer; for viscosity / speed of sound: 101.3 kPa, Liquid; for viscosity: Capillary tube (Ostwald / Ubbelohde) method

O=[N+]([O-])[O-].O=[N+]([O-])[O-].[Zn+2] [nitric acid, zinc salt] + O
Settings	speed of sound [m/s]	surface tension liquid-gas [mN/m]	viscosity [mPa·s]
273.15 K, m1 = 0.0875	1413	–	–
273.15 K, m1 = 0.1329	1413.5	–	1.863
273.15 K, m1 = 0.2263	–	75.65	–
273.15 K, m1 = 0.2466	1422.7	–	1.905
273.15 K, m1 = 0.334	–	75.79	–
273.15 K, m1 = 0.3388	1429.7	–	1.95
273.15 K, m1 = 0.6111	1454.8	–	2.081
273.15 K, m1 = 0.6198	–	76.35	–
273.15 K, m1 = 0.6405	1457	–	2.103
273.15 K, m1 = 0.8228	–	77.03	–
273.15 K, m1 = 1.113	1500.1	–	2.431
273.15 K, m1 = 1.258	1516.9	–	2.573
273.15 K, m1 = 1.259	–	78.02	–
273.15 K, m1 = 1.549	–	78.63	–
273.15 K, m1 = 1.551	1544.4	–	2.833
273.15 K, m1 = 1.818	–	78.99	–
273.15 K, m1 = 1.906	1578.6	–	3.306
273.15 K, m1 = 2.145	1600.1	–	3.662
273.15 K, m1 = 2.222	–	80.42	–
273.15 K, m1 = 2.29	1612.6	–	3.902
273.15 K, m1 = 2.292	1612.3	–	–
273.15 K, m1 = 2.344	1617.4	–	3.935
273.15 K, m1 = 2.526	–	81.29	–
273.15 K, m1 = 2.721	–	81.96	–
273.15 K, m1 = 2.91	1663.1	–	5.033
273.15 K, m1 = 3.426	–	83.68	–
273.15 K, m1 = 3.472	1707.7	–	6.559
273.15 K, m1 = 4.011	–	85.35	–
273.15 K, m1 = 4.075	1740.8	–	8.684
273.15 K, m1 = 4.231	–	85.77	–
273.15 K, m1 = 4.817	1780.2	–	12.49
273.15 K, m1 = 5.133	–	87.84	–
273.15 K, m1 = 5.224	1794	–	15.05
278.15 K, m1 = 0.0875	1435.8	–	–
278.15 K, m1 = 0.1329	1436.3	–	1.585
278.15 K, m1 = 0.2466	1444.2	–	1.626
278.15 K, m1 = 0.3388	1450.4	–	1.667
278.15 K, m1 = 0.6111	1472.6	–	1.788
278.15 K, m1 = 0.6405	1474.8	–	1.807
278.15 K, m1 = 1.113	1514.5	–	2.096
278.15 K, m1 = 1.258	1530.4	–	2.221
278.15 K, m1 = 1.551	1555	–	2.436
278.15 K, m1 = 1.906	1586.2	–	2.838
278.15 K, m1 = 2.145	1606.1	–	3.15
278.15 K, m1 = 2.29	1618.1	–	3.351
278.15 K, m1 = 2.292	1617.3	–	–
278.15 K, m1 = 2.344	1622.2	–	3.38
278.15 K, m1 = 2.91	1664.7	–	4.293
278.15 K, m1 = 3.472	1703.6	–	5.554
278.15 K, m1 = 4.075	1737.6	–	7.273
278.15 K, m1 = 4.817	1772.3	–	10.32
278.15 K, m1 = 5.224	1786.4	–	12.33
283.15 K, m1 = 0.0875	1456.4	–	–
283.15 K, m1 = 0.1329	1455.8	–	1.368
283.15 K, m1 = 0.2263	–	74.42	–
283.15 K, m1 = 0.2466	1463.2	–	1.406
283.15 K, m1 = 0.334	–	74.63	–
283.15 K, m1 = 0.3388	1468.8	–	1.444
283.15 K, m1 = 0.6111	1487.8	–	1.559
283.15 K, m1 = 0.6198	–	75.26	–
283.15 K, m1 = 0.6405	1491.2	–	1.571
283.15 K, m1 = 0.8228	–	75.94	–
283.15 K, m1 = 1.113	1526.3	–	1.827
283.15 K, m1 = 1.258	1540.8	–	1.936
283.15 K, m1 = 1.259	–	77.01	–
283.15 K, m1 = 1.549	–	77.42	–
283.15 K, m1 = 1.551	1564	–	2.13
283.15 K, m1 = 1.818	–	78.05	–
283.15 K, m1 = 1.906	1592.7	–	2.478
283.15 K, m1 = 2.145	1611.1	–	2.737
283.15 K, m1 = 2.222	–	79.29	–
283.15 K, m1 = 2.29	1618.7	–	2.901
283.15 K, m1 = 2.292	1619.7	–	–
283.15 K, m1 = 2.344	1626.1	–	2.932
283.15 K, m1 = 2.526	–	80.48	–
283.15 K, m1 = 2.721	–	80.75	–
283.15 K, m1 = 2.91	1665.6	–	3.705
283.15 K, m1 = 3.426	–	82.59	–
283.15 K, m1 = 3.472	1701.3	–	4.774
283.15 K, m1 = 4.011	–	84.21	–
283.15 K, m1 = 4.075	1733.5	–	6.175
283.15 K, m1 = 4.231	–	84.55	–
283.15 K, m1 = 4.817	1765.9	–	8.641
283.15 K, m1 = 5.133	–	86.75	–
283.15 K, m1 = 5.224	1779.8	–	10.24
283.15 K, m1 = 5.797	1795	–	–
283.15 K, m1 = 6.245	–	88.17	–
288.15 K, m1 = 0.0875	1473.6	–	–
288.15 K, m1 = 0.1329	1473.1	–	1.195
288.15 K, m1 = 0.2466	1479.5	–	1.229
288.15 K, m1 = 0.3388	1484.8	–	1.265
288.15 K, m1 = 0.6111	1503	–	1.368
288.15 K, m1 = 0.6405	1505.2	–	1.38
288.15 K, m1 = 1.113	1537.3	–	1.609
288.15 K, m1 = 1.258	1550.2	–	1.705
288.15 K, m1 = 1.551	1571.7	–	1.875
288.15 K, m1 = 1.906	1598.9	–	2.178
288.15 K, m1 = 2.145	1615	–	2.403
288.15 K, m1 = 2.29	1625	–	2.545
288.15 K, m1 = 2.292	1623.1	–	–
288.15 K, m1 = 2.344	1629.2	–	2.57
288.15 K, m1 = 2.91	1666	–	3.231
288.15 K, m1 = 3.472	1699.5	–	4.124
288.15 K, m1 = 4.075	1729.1	–	5.31
288.15 K, m1 = 4.817	1761.2	–	7.338
288.15 K, m1 = 5.224	1769.8	–	8.634
288.15 K, m1 = 5.797	1786.4	–	–
288.15 K, m1 = 6.34	1797.7	–	–
293.15 K, m1 = 0.2263	–	73.17	–
293.15 K, m1 = 0.334	–	73.3	–
293.15 K, m1 = 0.6198	–	74.02	–
293.15 K, m1 = 0.8228	–	74.83	–
293.15 K, m1 = 1.259	–	75.92	–
293.15 K, m1 = 1.549	–	76.32	–
293.15 K, m1 = 1.818	–	76.87	–
293.15 K, m1 = 2.222	–	78.11	–
293.15 K, m1 = 2.526	–	79	–
293.15 K, m1 = 2.721	–	79.59	–
293.15 K, m1 = 3.426	–	81.48	–
293.15 K, m1 = 4.011	–	83.01	–
293.15 K, m1 = 4.231	–	83.39	–
